pEC50: −log10 of the molar value. ≈ marks a conversion by molar mass, not a printed value. Like-named read-outs stand apart in the source and are kept apart here.
Tests used:
G. lamblia WB (MtzS) = assay: ATP-bioluminescence growth/survival EC50 assay, G. lamblia WB; conditions: for pEC50: minimum n = 3; for EC50: read-out: pEC50 ± SE G. lamblia WB, MtzS strain WB (converted); for S.I (CC50/EC50): average cytotoxicity against HEK293 and HepG2 / G. lamblia WB activity
Description: (§1) Compounds were screened for antiparasitic activity using an ATP-bioluminescence based assay for cell growth and survival, [24]. […] Viable cell numbers were determined in triplicate using the CellTiter-Glo Luminescent Cell Viability Assay.

G. lamblia 713M3 (MtzR) = assay: ATP-bioluminescence growth/survival EC50 assay, G. lamblia 713M3; type: cell-based, Giardia lamblia; conditions: for pEC50: minimum n = 3; for EC50: read-out: pEC50 ± SE G. lamblia 713M3, MtzR strain 713M3 (converted)
Description: as §1

E. histolytica HM1:IMSS = assay: ATP-bioluminescence growth/survival EC50 assay, E. histolytica; type: cell-based, Entamoeba histolytica; conditions: Entamoeba histolytica; for pEC50: read-out: EC50 E. histolytica HM1:IMSS; for EC50: read-out: pEC50 ± SE E. histolytica HM1:IMSS (converted)
Description: as §1

T. vaginalis F1623 = assay: ATP-bioluminescence growth/survival EC50 assay, T. vaginalis; type: cell-based, Trichomonas vaginalis; conditions: for pEC50: minimum n = 3; for EC50: read-out: pEC50 ± SE T. vaginalis F1623, MtzS (converted)
Description: as §1

[1] = system: C. difficile 630 (ATCC BAA-1382); assay: Broth microdilution MIC assay, C. difficile 630; type: cell-based, Clostridium difficile; conditions: Clostridioides difficile, ATCCBAA1382
Description: Clostridium difficile strains (630, ATCC BAA-1382 and NAP1/027, ATCC BAA-1803) were maintained as previously described. The minimum inhibition concentration (MIC) was determined according to the CLSI Methods with modifications in broth and inoculum for C. difficile, [25], [26]. Briefly, compounds and control antibiotics were serially diluted two-fold in 96-well plates (Non-binding surface, Corning). […] C. difficile bacteria from BHIS(TA) agar plates were cultured anaerobically in BHIS at 37 °C overnight. […] An antibiotic standard, a positive growth control (no compound) and a sterility control (no bacteria) were included on each 96 well plate. Plates were covered and incubated at 37 °C for 24 h. MICs for each strain were determined as the lowest concentration without visible growth. […] Median MICs are reported with a range given when the median MIC was between two tested concentrations.

[2] = system: C. difficile NAP1/027 (ATCC BAA-1803); assay: Broth microdilution MIC assay, C. difficile NAP1/027; type: cell-based, Clostridium difficile; conditions: Clostridioides difficile, ATCCBAA1803; strain NAP1/027
Description: Clostridium difficile strains (630, ATCC BAA-1382 and NAP1/027, ATCC BAA-1803) were maintained as previously described. The minimum inhibition concentration (MIC) was determined according to the CLSI Methods with modifications in broth and inoculum for C. difficile, [25], [26]. Briefly, compounds and control antibiotics were serially diluted two-fold in 96-well plates (Non-binding surface, Corning). The plates were placed in a Coy anaerobic chamber (5% H2, 10% CO2, 85% N2) overnight to reduce the medium. C. difficile bacteria from BHIS(TA) agar plates were cultured anaerobically in BHIS at 37 °C overnight. […]. Compound concentration ranged from 64 to 0.03 μg/mL. An antibiotic standard, a positive growth control (no compound) and a sterility control (no bacteria) were included on each 96 well plate. Plates were covered and incubated at 37 °C for 24 h. MICs for each strain were determined as the lowest concentration without visible growth. Variance between replicates was typically within one 2-fold dilution. Median MICs are reported with a range given when the median MIC was between two tested concentrations.

[3] = Resazurin cytotoxicity assay, HEK293; type: cell-based, Human; conditions: human, 24 h, highest concentration 100 μM, n = 3, read-out: CC50 HEK 293
Description: (§2) Human HEK293 and HepG2 cells were seeded at 3000 and 5000 cells per well in 384-well plates, respectively. Cells were cultured in Dulbecco's modified Eagle's medium with 10% FBS for 24 h at 37 °C, 5% CO2. A dilution series of compounds was added, with the highest concentration of 100 μM. […] After 24 h incubation with the compounds, 5 μM resazurin was added into each well and incubated at 37 °C for 2 h. As a negative control, 1% Triton X-100 was added into the culture media to lyse all of the cells. The fluorescence intensity was read using Polarstar Omega with excitation/emission 560/590 nm. Data were analysed with GraphPad Prism 6 software (La Jolla, California USA) to calculate CC50 values.

[4] = Resazurin cytotoxicity assay, HepG2; type: cell-based, Human; conditions: human, 24 h, highest concentration 100 μM, n = 3, read-out: CC50 Hep G2
Description: as §2

[5] = Giardia duodenalis, read-out: EC50 G. lamblia WB, MtzS strain WB
[6] = Giardia duodenalis, read-out: EC50 G. lamblia 713M3, MtzR strain 713M3
[7] = Trichomonas vaginalis, read-out: EC50 T. vaginalis F1623, MtzS
[8] = strain 630, MtzS, median of n = 4, read-out: MIC C. difficile 630
[9] = 630 and NAP1/027 strains together or strain not given, read-out: MIC C. difficile
[10] = read-out: EC50 G. lamblia 713M3, MtzR strain 713M3

| SMILES | pEC50 (G. lamblia WB (MtzS); [5]) | EC50 (G. lamblia WB (MtzS); Giardia duodenalis) | pEC50 (G. lamblia 713M3 (MtzR); [6]) | EC50 (G. lamblia 713M3 (MtzR); Giardia duodenalis) | pEC50 (E. histolytica HM1:IMSS) | EC50 (E. histolytica HM1:IMSS) | pEC50 (T. vaginalis F1623; [7]) | EC50 (T. vaginalis F1623; Trichomonas vaginalis) | MIC [1, 8] | MIC [2] | CC50 at 24 h [3] | CC50 at 24 h [4] | S.I (CC50/EC50) (G. lamblia WB (MtzS)) | CC50 at 24 h ([3]; HEK293 cells) | CC50 at 24 h ([4]; HepG2 cells) | MIC [1, 9] | pEC50 (G. lamblia WB (MtzS); read-out: EC50 G. lamblia WB, MtzS strain WB) | pEC50 (G. lamblia 713M3 (MtzR); [10]) | pEC50 (T. vaginalis F1623; read-out: EC50 T. vaginalis F1623, MtzS) |
| --- | --- | --- | --- | --- | --- | --- | --- | --- | --- | --- | --- | --- | --- | --- | --- | --- | --- | --- | --- |
| NC(=O)c1ncc([N+](=O)[O-])[nH]1 [Compound 12l, 5-nitro-1H-imidazole-2-carboxamide] | < 4.30 | > 50.1 µM | < 4.70 | > 20 µM | 4.89 | 13.2 µM | < 4.70 | > 20 µM | 1 µg/mL (≈ 6.41 µM) | 1 to 2 µg/mL (≈ 6.41 to 12.8 µM) | > 100 µM | > 100 µM |  |  |  |  |  |  |  |
| CNC(=O)c1ncc([N+](=O)[O-])[nH]1 [Compound 12m, N-methyl-5-nitro-1H-imidazole-2-carboxamide] | 5.00 | 10 µM | < 4.70 | > 20 µM | 5.21 | 6.17 µM | 5.07 | 8.51 µM | 0.5 to 1 µg/mL (≈ 2.94 to 5.88 µM) | 1 µg/mL (≈ 5.88 µM) |  |  | >10 | > 100 µM | > 100 µM |  |  |  |  |
| O=C(NCc1ccccn1)c1ncc([N+](=O)[O-])[nH]1 [Compound 12f, 5-nitro-N-(pyridin-2-ylmethyl)-1H-imidazole-2-carboxamide] | 5.14 | 7.24 µM | < 4.70 | > 20 µM | 4.82 | 15.1 µM | 5.15 | 7.08 µM | 2 µg/mL (≈ 8.09 µM) | 2 µg/mL (≈ 8.09 µM) |  |  | >14 | > 100 µM | > 100 µM |  |  |  |  |
| O=C(NCCO)c1ncc([N+](=O)[O-])[nH]1 [Compound 12n, N-(2-hydroxyethyl)-5-nitro-1H-imidazole-2-carboxamide] | < 4.30 | > 50.1 µM | < 4.70 | > 20 µM | < 4.30 | > 50.1 µM | < 4.70 | > 20 µM | 8 µg/mL (≈ 40 µM) | 8 to 16 µg/mL (≈ 40 to 79.9 µM) |  |  |  | > 100 µM | > 100 µM | 8 to 16 µg/mL (≈ 40 to 79.9 µM) |  |  |  |
| O=C(NCc1cccc(OC(F)(F)F)c1)c1ncc([N+](=O)[O-])[nH]1 [Compound 12c, 5-nitro-N-(3-(trifluoromethoxy)benzyl)-1H-imidazole-2-carboxamide] | 6.70 | 0.2 µM | 4.82 | 14.8 µM | 5.44 | 3.63 µM | 5.72 | 1.91 µM | 16 µg/mL (≈ 48.5 µM) | 16 µg/mL (≈ 48.5 µM) | > 100 µM | > 100 µM | >500 |  |  |  |  |  |  |
| Cc1ccc(CCNC(=O)c2ncc([N+](=O)[O-])n2C)cc1 [Compound 8e, 1-methyl-N-(4-methylphenethyl)-5-nitro-1H-imidazole-2-carboxamide] | 5.46 to 5.55 | 2.82 µM | < 4.70 | > 20 µM | 4.89 | 12.9 µM |  | 8.13 µM | > 64 µg/mL | > 64 µg/mL |  |  | >36 | > 100 µM | > 100 µM |  | 5.55 |  |  |
| Cc1ccc(CCNC(=O)c2ncc([N+](=O)[O-])[nH]2)cc1 [Compound 12e, N-(4-methylphenethyl)-5-nitro-1H-imidazole-2-carboxamide] | 6.22 to 7.00 | 0.1 µM | ≥ 5.60 | 1.35 µM | 5.68 | 2.09 µM | 5.64 to 5.92 | 1.2 µM | 8 µg/mL (≈ 29.2 µM) | 8 µg/mL (≈ 29.2 µM) |  |  | >1000 | > 100 µM | > 100 µM | 4 to 16 µg/mL (≈ 14.6 to 58.3 µM) |  | 5.85 | 5.92 |
| CN(CCO)C(=O)c1ncc([N+](=O)[O-])[nH]1 [Compound 12o, N-(2-hydroxyethyl)-N-methyl-5-nitro-1H-imidazole-2-carboxamide] | 4.62 | 24 µM | < 4.70 | > 20 µM | < 4.30 | > 50.1 µM | < 4.70 | > 20 µM | 2 µg/mL (≈ 9.34 µM) | 4 µg/mL (≈ 18.7 µM) |  |  | >4 | > 100 µM | > 100 µM | 0.5 to 2 µg/mL (≈ 2.33 to 9.34 µM) |  |  |  |
| Cn1c([N+](=O)[O-])cnc1C(=O)NC1CC1 [Compound 8j, N-cyclopropyl-1-methyl-5-nitro-1H-imidazole-2-carboxamide] | 5.47 | 3.39 µM | 5.07 | 8.71 µM | 4.92 | 12 µM | 5.96 | 1.1 µM | > 64 µg/mL | > 64 µg/mL |  |  | >29 | > 100 µM | > 100 µM |  |  |  |  |
| CC(NC(=O)c1ncc([N+](=O)[O-])[nH]1)c1ccc(F)cc1 (stereo not drawn) [Compound 12d, N-(1-(4-fluorophenyl)ethyl)-5-nitro-1H-imidazole-2-carboxamide] | 6.40 | 0.398 µM | ≥ 5.60 | 1.26 µM | 5.77 | 1.7 µM | 6.22 | 0.589 µM | 8 µg/mL (≈ 28.8 µM) | 8 µg/mL (≈ 28.8 µM) |  |  | >250 | > 100 µM | > 100 µM |  |  | 5.89 |  |
| Cn1c([N+](=O)[O-])cnc1C(=O)NCc1ccccn1 [Compound 8f, 1-methyl-5-nitro-N-(pyridin-2-ylmethyl)-1H-imidazole-2-carboxamide.xTFA] | 5.80 | 1.58 µM | 5.39 | 4.07 µM | 4.85 | 14.1 µM | 5.85 | 1.45 µM | 64 µg/mL | 64 µg/mL |  |  | >63 | > 100 µM | > 100 µM |  |  |  |  |
